Source: patent publication US10844017B2, “Biaryl compound, preparation method and use thereof” (FUDAN UNIVERSITY, priority 2017, dated 2020)

The compounds below were run against T1, RORγ receptor (B-RORγ LBD / Bioin-SRC1) (Homo sapiens, UniProt P51449) (assay: Determination of agonistic activities on RORγ receptors in vitro (dual FRET)). Settings: average of at least two independent experiments.
T1 construct: 40 nM B-RORγ LBD solution
T1 sequence (P51449 269-508 limits assumed): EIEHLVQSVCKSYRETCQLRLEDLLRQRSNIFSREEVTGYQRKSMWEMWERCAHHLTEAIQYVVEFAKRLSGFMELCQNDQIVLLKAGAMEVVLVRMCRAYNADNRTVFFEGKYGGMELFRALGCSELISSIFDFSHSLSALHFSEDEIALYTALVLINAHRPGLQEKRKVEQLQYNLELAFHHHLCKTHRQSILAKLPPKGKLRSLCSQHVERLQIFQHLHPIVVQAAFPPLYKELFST
T1 sequence (Q15788 676-700 partner limits assumed): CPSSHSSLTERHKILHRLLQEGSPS
Assay type: biochemical
Protocol: Determination of Agonistic Activities of Compounds on RORγ Receptors In Vitro The agonistic activities of compounds described herein on RORγ receptor were determined by dual fluorescence resonance energy transfer (dual FRET) experiments. The agonistic activity was expressed by half maximum effect concentration (EC50).
1) Preparation of RORγ Assay Buffer
100 mL of buffer solution was well mixed with […] DTT for use.
2) Preparation of Solutions of Compounds
3) Preparation of protein mixtures a) 40 nM B-RORγ LBD solution was mixed well with 20 nM SA-APC solution and incubated for 15 minutes at room temperature. Then the resulting mixture was further mixed well with 400 nM Biotin and incubated for another 10 minutes at room temperature. […]
b) 40 nM Bioin-SRC1 solution was mixed well with 10 nM SA-eu solution and was incubated for 15 minutes at room temperature. Then the resulting mixture was further mixed well with 200 nM Biotin and was incubated for another 10 minutes at room temperature. […]
d) A mixture (25 μL) of B-RORγ LBD/SA-APC and Bioin-SRC1/SA-eu together with a test compound was added to one of the wells of a 384-well plate, and then the plate was centrifuged for one minute at 1000 rpm, and incubated at room temperature for one hour. The data were read on an Envision microplate detector and EC50 values were calculated.
`CCC(=O)Nc1cc(Cl)c(-c2ccc(CC(C)C)c(C#N)c2)c(Cl)c1` [Example 1, N-(2,6-Dichloro-3′-cyano-4′-isobutyl-[1,1′-biphenyl]-4-yl)propionamide] was tested, and the EC50 was 10 to 50 nM.
`CC(C)Cc1ccc(-c2c(Cl)cc(NC(=O)c3ccccc3)cc2Cl)cc1C#N` [Example 3, N-(2,6-Dichloro-3′-cyano-4′-isobutyl-[1,1′-biphenyl]-4-yl)benzamide] was tested, and the EC50 was 50 to 100 nM.
In the case of `CC(C)CC(=O)Nc1cc(Cl)c(-c2ccc(CC(C)C)c(C#N)c2)c(Cl)c1` [Example 4, N-(2,6-dichloro-3′-cyano-4′-isobutyl-[1,1′-biphenyl]-4-yl)-3-methylbutanamide], the EC50 is reported as 10 to 50 nM.
With `CC(C)Cc1ccc(-c2c(Cl)cc(NC(=O)Cc3ccccc3)cc2Cl)cc1C#N` [Example 7, N-(2,6-Dichloro-3′-cyano-4′-isobutyl-[1,1′-biphenyl]-4-yl)-2-phenylacetamide] the EC50 was 10 to 50 nM.
`CC(C)Cc1ccc(-c2c(Cl)cc(NC(=O)Cc3ccc(=O)[nH]c3)cc2Cl)cc1C#N` [Example 8, N-(2,6-Dichloro-3′-cyano-4′-isobutyl-[1,1′-biphenyl]-4-yl)-2-(6-oxo-1,6-dihydropyridin-3-yl)acetamide] gave an EC50 of 10 to 50 nM.
`CC(C)Cc1ccc(-c2c(Cl)cc(NC(=O)Cc3ccnn3C)cc2Cl)cc1C#N` [Example 9B, N-(2,6-dichloro-3′-cyano-4′-isobutyl-[1,1′-biphenyl]-4-yl)-2-(1-methyl-1H-pyrazol-5-yl)acetamide] showed an EC50 of 10 to 50 nM.
For `CC(C)Cc1ccc(-c2c(Cl)cc(NC(=O)Cc3ccc(C#N)cc3)cc2Cl)cc1C#N` [Example 10, 2-(4-Cyanophenyl)-N-(2,6-dichloro-3′-cyano-4′-isobutyl-[1,1′-biphenyl]-4-yl)acetamide], the EC50 was 10 to 50 nM.
Work on `CC(C)Cc1ccc(-c2c(Cl)cc(NC(=O)Cc3cccc(C#N)c3)cc2Cl)cc1C#N` [Example 12, 2-(3-cyanophenyl)-N-(2,6-dichloro-3′-cyano-4′-isobutyl-[1,1′-biphenyl]-4-yl)acetamide] yielded an EC50 of 10 to 50 nM.
`CC(C)Cc1ccc(-c2c(Cl)cc(NC(=O)Cc3cccnc3)cc2Cl)cc1C#N` [Example 14, N-(2,6-Dichloro-3′-cyano-4′-isobutyl-[1,1′-biphenyl]-4-yl)-2-(pyridin-3-yl)acetamide] gave an EC50 of 10 to 50 nM.
With `CC(C)Cc1ccc(-c2c(Cl)cc(NC(=O)Cc3ccncc3)cc2Cl)cc1C#N` [Example 15, N-(2,6-Dichloro-3′-cyano-4′-isobutyl-[1,1′-biphenyl]-4-yl)-2-(pyridin-4-yl)acetamide] the EC50 was 10 to 50 nM.
Work on `CC(C)Cc1ccc(-c2c(Cl)cc(NC(=O)Cc3cccc(S(C)(=O)=O)c3)cc2Cl)cc1C#N` [Example 18, N-(2,6-Dichloro-3′-cyano-4′-isobutyl-[1,1′-biphenyl]-4-yl)-2-(3-(methylsulfonyl)phenyl)acetamide] yielded an EC50 of 10 to 50 nM.
`CNS(=O)(=O)c1ccc(CC(=O)Nc2cc(Cl)c(-c3ccc(CC(C)C)c(C#N)c3)c(Cl)c2)cc1` [Example 22, N-(2,6-Dichloro-3′-cyano-4′-isobutyl-[1,1′-biphenyl]-4-yl)-2-(4-(N-methylsulfamoyl)phenyl)acetamide] showed an EC50 of 10 to 50 nM.
`CC(C)Cc1ccc(-c2c(Cl)cc(NC(=O)Cc3ccc(P(C)(C)=O)cc3)cc2Cl)cc1C#N` [Example 23, N-(2,6-Dichloro-3′-cyano-4′-isobutyl-[1,1′-biphenyl]-4-yl)-2-(4-(dimethylphosphoryl)phenyl)acetamide] gave an EC50 of 10 to 50 nM.
Compound `CC(C)Cc1ccc(-c2c(Cl)cc(NC(=O)Cc3ccc(CC(=O)O)cc3)cc2Cl)cc1C#N` [Example 25, 2-(4-(2-((2,6-Dichloro-3′-cyano-4′-isobutyl-[1,1′-biphenyl]-4-yl)amino)-2-oxoethyl)phenyl)acetic acid] has an EC50 of under 10 nM.
`CCS(=O)(=O)c1ccc(CC(=O)Nc2cc(Cl)c(-c3ccc(CC(C)C)c(F)c3)c(Cl)c2)cc1` [Example 27, N-(2,6-Dichloro-3′-fluoro-4′-isobutyl-[1,1′-biphenyl]-4-yl)-2-(4-(ethylsulfonyl)phenyl)acetamide] showed an EC50 of 10 to 50 nM.
For `CCS(=O)(=O)c1ccc(CC(=O)Nc2cc(Cl)c(-c3ccc(CC(C)C)cc3C#N)c(Cl)c2)cc1` [Example 28, N-(2,6-dichloro-2′-cyano-4′-isobutyl-[1,1′-biphenyl]-4-yl)-2-(4-(ethylsulfonyl)phenyl)acetamide], the EC50 was 10 to 50 nM.
Compound `CCS(=O)(=O)c1ccc(CC(=O)Nc2ccc(-c3ccc(CC(C)C)cc3C(F)(F)F)c(Cl)c2)cc1` [Example 29, N-(2-chloro-4′-isobutyl-2′-(trifluoromethyl)-[1,1′-biphenyl]-4-yl)-2-(4-(ethylsulfonyl)phenyl)acetamide] has an EC50 of 10 to 50 nM.
`CCS(=O)(=O)c1ccc(CC(=O)Nc2ccc(-c3ccc(CC(C)C)cc3OC(F)(F)F)c(Cl)c2)cc1` [Example 30, N-(2-Chloro-4′-isobutyl-2′-(trifluoromethoxy)-[1,1′-biphenyl]-4-yl)-2-(4-(ethylsulfonyl)phenyl)acetamide] showed an EC50 of 10 to 50 nM.
Work on `CCS(=O)(=O)c1ccc(CC(=O)Nc2ccc(-c3ccc(CC(C)C)c(C#N)c3)c(Cl)c2)cc1` [Example 31, N-(2-Chloro-3′-cyano-4′-isobutyl-[1,1′-biphenyl]-4-yl)-2-(4-(ethylsulfonyl)phenyl)acetamide] yielded an EC50 of under 10 nM.
With `CCS(=O)(=O)c1ccc(CC(=O)Nc2cc(Cl)c(-c3ccc(CN4CCC4)c(C#N)c3)c(Cl)c2)cc1` [Example 38, N-(4′-(Azetidin-1-ylmethyl)-2,6-dichloro-3′-cyano-[1,1′-biphenyl]-4-yl)-2-(4-(ethylsulfonyl)phenyl)acetamide] the EC50 was over 1000 nM.
For `CCS(=O)(=O)c1ccc(CC(=O)Nc2cc(Cl)c(-c3ccc(CN4CCCC4)c(C#N)c3)c(Cl)c2)cc1` [Example 39, N-(2,6-Dichloro-3′-cyano-4′-(pyrrolidin-1-ylmethyl)-[1,1′-biphenyl]-4-yl)-2-(4-(ethylsulfonyl)phenyl)acetamide], the EC50 was 10 to 50 nM.
Work on `CCS(=O)(=O)c1ccc(CC(=O)Nc2cc(Cl)c(-c3ccc(C=C4CCC4)c(C#N)c3)c(Cl)c2)cc1` [Example 44, N-(2,6-Dichloro-3′-cyano-4′-(cyclobutylidenemethyl)-[1,1′-biphenyl]-4-yl)-2-(4-(ethylsulfonyl)phenyl)acetamide] yielded an EC50 of 10 to 50 nM.
Compound `CCS(=O)(=O)c1ccc(CC(=O)Nc2cc(Cl)c(-c3ccc(CC4CCCC4)c(C#N)c3)c(Cl)c2)cc1` [Example 45, N-(2,6-Dichloro-3′-cyano-4′-(cyclopentylmethyl)-[1,1′-biphenyl]-4-yl)-2-(4-(ethylsulfonyl)phenyl)acetamide] has an EC50 of 10 to 50 nM.
In the case of `CC(C)Cc1ccc(-c2c(Cl)cc(C(=O)NCc3ccc(S(C)(=O)=O)cc3)cc2Cl)cc1C#N` [Example 48, 2,6-Dichloro-3′-cyano-4′-isobutyl-N-(4-(methylsulfonyl)benzyl)-[1,1′-biphenyl]-4-carboxamide], the EC50 is reported as 50 to 100 nM.
For `CC(C)Cc1ccc(-c2c(Cl)cc(C(=O)NCc3ccc(S(C)(=O)=O)cn3)cc2Cl)cc1C#N` [Example 50, 2,6-Dichloro-3′-cyano-4′-isobutyl-N-((5-(methylsulfonyl)pyridin-2-yl)methyl)-[1,1′-biphenyl]-4-carboxamide], the EC50 was 50 to 100 nM.
Work on `CCS(=O)(=O)c1ccc(CNC(=O)c2cc(Cl)c(-c3ccc(CN(C)C)c(C#N)c3)c(Cl)c2)cc1` [Example 51, 2,6-Dichloro-3′-cyano-4′-((dimethylamino)methyl)-N-(4-(ethylsulfonyl)benzyl)-[1,1′-biphenyl]-4-carboxamide] yielded an EC50 of 100 to 500 nM.
